Experimental data taken from patent US20080311189A1, “Compositions Comprising Organometallic Molybdenum Compounds For Treating Cancer” (priority 2004, published 2008).

Tests used:
Type in all cases: cell-based
[1] = tested on: Ehrlich ascites mouse tumor cell line; experiment: MTT viability assay, Ehrlich ascites cells; conditions: Ehrlich ascites mouse cancer cells, 3 hours incubation with drug, read 24 hours after removal of the drug
Experimental: (§1) The cytotoxic activity of theses complexes was evaluated against 6 different cell lines, using the MTT assay (3-(4,5-dimethylthiazol-2-yl)-2,5-diphenyltetrazolium bromide assay) (Mosmann, T. J. Immunol. Methods, 1983, 65, 55-63) to measure the cell viability.
(§2) Cell lines were routinely propagated in 75 cm^2 tissue culture flasks (SARSTEDT, Leicester, U.K.), in a humidified atmosphere of 5% CO2 in air at 37° C., and were trypsinized and harvested into new medium every 2-4 days, just before confluence. Cell lines were cultured for a minimum of two passages after thawing prior to experimentation.
The Ehrlich ascites mouse tumor cell line was purchased at ECACC (European Collection of Cell culture) and propagated in NCTC-135 medium (Sigma, ref. N3262) 2 mM in L-glutamine, supplemented with 10% heat-inactivated fetal bovine serum (FBS) and 1% penicillin/streptomycin.
(§3) This assay is based on the capacity of mitochondrial dehydrogenase enzymes in living cells to convert the yellow water soluble substrate (MTI) into a dark blue product which is quantified by spectrophotometric means. Briefly, exponentially growing cells were trypsinized, dispensed in sixplicates into 96-well tissue culture plates and allowed to attach overnight. The next day the cells were treated with various concentrations of the drug, ranging from 1 to 1000 μM. By addition of an adequate volume of a freshly prepared DMSO solution of the compound to the medium, the desired test concentrations were obtained. For. each test concentration and for the control which contained the corresponding amount of DMSO, 6 wells were used. After an incubation period of 3 hours the cells were carefully washed (twice) with phosphate buffer saline (PBS) and 100 μl of medium were added. The cells were incubated for 24 hours and 10 μl of a MTT solution (5 mg/ml) were added to each well. The tetrazolium/formazan reaction was allowed to proceed for 4 hours and the medium was carefully removed. The dark blue formazan crystals were dissolved by adding 150 μl of DMSO and agitating for 15 minutes in a plate shaker. The optical density was measured at […] using a 96-well multiscanner autoreader. The percentage of survival was calculated using the formula: % survival=live cell number [test]/live cell number [control]×100. The IC50 values were calculated by nonlinear regression analysis using the graphed Prism software (GraphPad Software, Inc., San Diego, Calif.) and are compiled in tables 2-4.
(§4) Using the colorimetric mitochondrial function-based MTT viability assay, we examined the effects of molybdenum (II) complexes against 6 different cell lines, by measuring the cellular proliferation at 8 different concentrations ranging from 1 to 1000 μM, 24 hours after removal of the drug. The IC50 values were calculated from dose-response curves obtained by nonlinear regression analysis. FIG. 4 represent and compare dose-response curves obtained for several molybdenum compounds against the Ehrlich ascites mouse cell line.

[2] = tested on: non-tumoral MRC-5 human fibroblast; experiment: MTT viability assay, non-tumoral human fibroblasts; conditions: MRC-5 human fibroblasts, 3 hours incubation with drug, 24 hours after removal
Experimental: as §1, §2
The […] cells, secondary human lung fibroblasts, were purchased at ECACC. The cells were grown in MEM with Earls' Salt and L-glutamine (Gibco, ref. 61100-053), supplemented with 10% fetal bovine serum (FBS) and 1% neomycin.
as §3, §4

[3] = tested on: GP-202 gastric human cell line; experiment: MTT viability assay, GP-202 cells; conditions: 3 hours incubation with drug, 24 hours after removal, read-out: IC50 VALUE, Human tumoral cell lines, Gastric GP-202
Experimental: as §1, §2
(§5) The tumnoral GP-202 and GP-220 gastric human cell lines were established at IPATIMUP (Instituto de Patologia e Imunologia Molecular da Universidade do Porto). […]
(§6) This assay is based on the capacity of mitochondrial dehydrogenase enzymes in living cells to convert the yellow water soluble substrate (MTI) into a dark blue product which is quantified by spectrophotometric means. […] The optical density was measured at […] using a 96-well multiscanner autoreader. The percentage of survival was calculated using the formula: % survival=live cell number [test]/live cell number [control]×100. The IC50 values were calculated by nonlinear regression analysis using the graphed Prism software (GraphPad Software, Inc., San Diego, Calif.) and are compiled in tables 2-4. […]

[4] = tested on: GP-220 gastric human cell line; experiment: MTT viability assay, GP-220 cells; conditions: 3 hours incubation with drug, 24 hours after removal, read-out: IC50 VALUE, Human tumoral cell lines, Gastric GP-220
Experimental: as §1, §2, §5, §6

[5] = tested on: MKN45 gastric human cell line; experiment: MTT viability assay, MKN-45 cells; conditions: 3 hours incubation with drug, 24 hours after removal, read-out: IC50 VALUE, Human tumoral cell lines, Gastric MKN-45
Experimental: as §1, §2
(§7) The tumoral MKN45 gastric and HT-29 colorectal human cell lines were purchased at ECACC. […]
as §6

[6] = tested on: HT-29 colorectal human cell line; experiment: MTT viability assay, HT-29 cells; conditions: 3 hours incubation with drug, 24 hours after removal, read-out: IC50 VALUE, Human tumoral cell lines, Colon HT-29
Experimental: as §1, §2, §7, §6

(η^3-C3H5)Mo(CO)2(1,10-phen)Br [Compound 24]
IC50 [1]: 7.3 ± 1 µM

(η^3-C3H5)Mo(CO)2(2,3-Me2-p-tolilDAB)Br [Compound 23]
IC50 [1]: 59.1 ± 1.1 µM | IC50 [2]: 104 ± 1.1 µM

(η^3-C3H5)Mo(CO)2(4,7-diphenyl-1,10-phen)Br [Compound 25]
IC50 [1]: 12.5 ± 1.2 µM | IC50 [2]: 12.1 ± 1.1 µM

[(η^5-Cp)Mo(CO)2dppe]BF4 [Compound 21]
IC50 [1]: 20 ± 1.1 µM | IC50 [2]: 24 ± 1 µM

[(η^5-Cp)Mo(CO)2trithiane]BF4 [Compound 19]
IC50 [1]: 142.1 ± 1.1 µM

[(η^5-Cp)Mo(CO)2tten]BF4 [Compound 20]
IC50 [1]: 138.9 ± 1.2 µM | IC50 [2]: 139.8 ± 1.2 µM

[(η^5-Cp)Mo(CO)2{5,6-Ph2-3-(2-py)-1,2,4-Tz}]BF4 [Compound 22]
IC50 [1]: 105 ± 1.2 µM | IC50 [2]: 68.9 ± 1.1 µM

[(η^5-Ind)Mo(CO)2(1,4,7,10-tetrt)]BF4 [Compound 17]
IC50 [1]: 19.9 ± 1.1 µM | IC50 [2]: 213.5 ± 1.1 µM

[(η^5-Ind)Mo(CO)2(2,2′-biq)]BF4 [Compound 8]
IC50 [1]: 35 ± 1.1 µM | IC50 [3]: 5 ± 1.1 µM | IC50 [4]: 2.7 ± 1 µM | IC50 [5]: 4.4 ± 1 µM | IC50 [6]: 13.3 ± 1.1 µM | IC50 [2]: 13 ± 1 µM

[(η^5-Ind)Mo(CO)2(4,4′-Ph2-2,2′-bpy)]BF4 [Compound 2]
IC50 [1]: 13.7 ± 1.1 µM

[(η^5-Ind)Mo(CO)2(4,7-Me2-1,10-phen)]BF4 [Compound 7]
IC50 [1]: 29.5 ± 1 µM | IC50 [2]: 64.4 ± 1.1 µM

[(η^5-Ind)Mo(CO)2(4,7-Ph2-1,10-phen)]BF4 [Compound 6]
IC50 [1]: 5.7 ± 1 µM | IC50 [3]: 4.2 ± 1.1 µM | IC50 [4]: 1.8 ± 1.1 µM | IC50 [5]: 4.6 ± 1.1 µM | IC50 [6]: 6.6 ± 1 µM | IC50 [2]: 14.9 ± 1 µM

[(η^5-Ind)Mo(CO)2(CYDAB)]BF4 [Compound 4]
IC50 [1]: 140.3 ± 1.2 µM | IC50 [2]: 75 ± 1.1 µM

[(η^5-Ind)Mo(CO)2(NCMe)2]BF4 [Compound 18]
IC50 [1]: 56.7 ± 1.7 µM

[(η^5-Ind)Mo(CO)2(p-tolilDAB)]BF4 [Compound 3]
IC50 [1]: 6.6 ± 1 µM | IC50 [2]: 84.1 ± 1 µM

[(η^5-Ind)Mo(CO)2bpy]BF4 [Compound 1]
IC50 [1]: 95.9 ± 1.1 µM | IC50 [2]: 143.2 ± 1.1 µM

[(η^5-Ind)Mo(CO)2dppe]BF4 [Compound 14]
IC50 [1]: 5.8 ± 1.1 µM | IC50 [2]: 20.3 ± 1.1 µM

[(η^5-Ind)Mo(CO)2phen]BF4 [Compound 5]
IC50 [1]: 32.9 ± 1 µM | IC50 [2]: 73.3 ± 1.1 µM

[(η^5-Ind)Mo(CO)2trithiane]BF4 [Compound 15]
IC50 [1]: 20.7 ± 1 µM | IC50 [2]: 136.6 ± 1 µM

[(η^5-Ind)Mo(CO)2tten]BF4 [Compound 16]
IC50 [1]: 8.4 ± 1.1 µM | IC50 [2]: 91 ± 1.1 µM

[(η^5-Ind)Mo(CO)2{1,2-Ph(NH2)2}]BF4 [Compound 13]
IC50 [1]: 67.6 ± 1.2 µM | IC50 [2]: 73.7 ± 1.1 µM

[(η^5-Ind)Mo(CO)2{5,6-Ph2-3-(2-py)-1,2,4-Tz}]BF4 [Compound 9]
IC50 [2]: 13.4 ± 1 µM
